Measured values as given in patent US20090111868A1 (priority 2004, published 2009).
Entries after “also recorded” stand apart in the source; their conditions may differ. Where two headings read alike, the source gives them in different places.

Assays:
[1] = target: BKCa channel (Mus musculus, UniProt Q08460); assay: Single channel recordings of BKCa channel, outside-out and inside-out patches (cell-free configuration); type: biochemical; settings: for inhibition of rottlerin channel activation: not shown
Description: Amplitude histograms are shown on the right. […] Ca^2+ was maintained at 0 (virtual; actual<20 nM) through dialysis using patch pipette. Since cellular compartments are excluded from patch and outside-out patch perfused locally with 0 Ca^2+, activation is Ca^2+-independent. […] Amplitude histograms are shown on the right.

[2] = target: BKCa channel α and β subunits (Homo sapiens, UniProt Q12791); settings: α and β subunits co-expressed; cited from earlier work
[3] = target: T1, BKCa channels (Homo sapiens, UniProt Q12791); settings: cited from earlier work
[4] = not told; cited from earlier work
[5] = test system: hypertensive rat model; settings: hypertensive rat model compared to controls; cited from earlier work
[6] = target: T2, BKCa channel (mSlo) (Mus musculus, UniProt Q08460); assay: Whole cell patch clamp of BKCa channel in stably transfected mSlo HEK293 cells; type: cell-based, murine
T2 construct: expressed in transfected cells
Description: (A-B) Representative current traces from whole cell patch with 5 mM EGTA in patch pipette. […] Voltage steps are shown at the right of each tracing; note different maximum voltage steps +200 mV (upper) vs. +120 mV (lower). […] Tail currents are in opposite direction due to final voltage step (+60 upper, −60 mV left). (C) G-V curves were constructed for indicated conditions utilizing tail analysis (Xia, et al., Multiple regulatory sites in large-conductance calcium-activated potassium channels. Nature, 2002. 418(6900):880-4). Solid lines were fitted with Boltzmann function (Origin 7.5). […] Representative of>30 similar experiments with rat and murine (pictured) s1o. (D-E) Stable mslo HEK293 cells were studied in whole cell configuration with pipette solution containing 5 mM EGTA (˜0 free Ca^2+).
(§1) Current was monitored with ramp protocol; holding potential −60 mV, with ramp from −80 mV to +150 mV over 500 ms. Extracellular application of NS-1619 (10 μM) increased current as previously described (Olesen, et al., Selective activation of Ca(2+)-dependent K+channels by novel benzimidazolone. Eur. J. Pharmacol., 1994. 251(1):53-9). […] Analysis performed using tail analysis with normalization as previously described (Xia, et al., Multiple regulatory sites in large-conductance calcium-activated potassium channels. Nature, 2002. 418(6900):880-4). (B) HEK cells co-expressing α and β1 subunits were studied in whole cell configuration with 5 mM EGTA (intra-pipette). […] (C) Human VSMC were studied in outside-out configuration, utilizing single channel recordings, recorded at +60 mV. […] Identification of the BKCa channel was determined by conductance and inhibition by iberiotoxin and TEA. […] Murine femoral arterial rings from were isolated and placed in a wire myograph. […] Figure representative of 4 similar experiments. Error bars are SEM; * p<0.001.

[7] = test system: porcine coronary myocytes; settings: 30 μM; through ryanodine receptor sensitive storage sites; cited from earlier work
[8] = test system: Ca^2+ channel; settings: cited from earlier work
[9] = test system: Cl^− channel; settings: cited from earlier work
[10] = test system: Ca^2+ sparks (RyR); settings: cited from earlier work
[11] = test system: other PKC isozymes; settings: in vitro; cited from earlier work
[12] = test system: guinea pigs; settings: purified rottlerin 10-20 mg/kg/day × 6 days; cited from earlier work
[13] = target: PKCα (Homo sapiens, UniProt P17252); settings: rottlerin 20 μM; 0.1 mM (or 0.01 mM) ATP; phosphatidylserine; histone H1 or myelin basic protein substrate; cited from earlier work
[14] = target: PKA (Homo sapiens, UniProt P17612); settings: read-out: IC50 for PKA; in vitro; cited from earlier work
[15] = target: T3, BKCa channel mSlo and β1 subunit (Mus musculus, UniProt Q08460); assay: Whole cell recording in HEK cells co-expressing α and β1 subunits; type: cell-based, murine
T3 construct: expressed in transfected cells; host or cells: HEK293
Description: as §1

[16] = test system: Murine femoral arterial rings; assay: Phenylephrine induced constriction of femoral arterial rings, wire myograph; type: cell-based
Description: as §1

[17] = test system: canine subarachnoid hemorrhage model; settings: rottlerin 5 μM injected into the cistema magna; cited from earlier work
[18] = target: T4, PKCδ (Homo sapiens, UniProt Q05655); settings: rottlerin 20 μM; 0.1 mM (or 0.01 mM) ATP; phosphatidylserine; histone H1 or myelin basic protein substrate; cited from earlier work
[19] = target: casein kinase II (Homo sapiens, UniProt P68400); settings: read-out: IC50 for casein kinase II; in vitro; cited from earlier work
[20] = test system: mitochondria in intact cells; settings: cited from earlier work
[21] = test system: rats; settings: purified rottlerin 10-20 mg/kg/day × 6 days; cited from earlier work
[22] = target: T4, PKCδ; settings: read-out: IC50 for PKCδ; in vitro; cited from earlier work
[23] = target: T1, BKCa channels; assay: Single channel recordings (outside-out) in human VSMC; type: cell-based; set-up: endogenous in cells; host or cells: human vascular smooth muscle cells (VSMC) grown in vitro; settings: recorded at +60 mV
Description: as §1

[24] = test system: 3T3-L1 adipocytes; settings: read-out: IC50, inhibition of insulin-induced glucose uptake; cited from earlier work
[25] = target: T5, glutamate-aspartate transporter (GLAST) (Homo sapiens, UniProt P43003); settings: cited from earlier work
T5 construct: host or cells: astrocytes (from the cited title only)

[26] = target: T4, PKCδ; settings: more recent data; cited from earlier work
[27] = target: maxi-K channels (Homo sapiens, UniProt Q12791); settings: applied to the cytoplasmic side; cited from earlier work
[28] = target: maxi-K potassium channels (Homo sapiens, UniProt Q12791); settings: cited from earlier work
[29] = test system: rat stroke models; settings: cited from earlier work
[30] = target: T6, BKCa channel (Sus scrofa, UniProt O18866); settings: cited from earlier work
T6 construct: host or cells: porcine coronary artery cells (endogenous)
T6 sequence (O18866 whole entry): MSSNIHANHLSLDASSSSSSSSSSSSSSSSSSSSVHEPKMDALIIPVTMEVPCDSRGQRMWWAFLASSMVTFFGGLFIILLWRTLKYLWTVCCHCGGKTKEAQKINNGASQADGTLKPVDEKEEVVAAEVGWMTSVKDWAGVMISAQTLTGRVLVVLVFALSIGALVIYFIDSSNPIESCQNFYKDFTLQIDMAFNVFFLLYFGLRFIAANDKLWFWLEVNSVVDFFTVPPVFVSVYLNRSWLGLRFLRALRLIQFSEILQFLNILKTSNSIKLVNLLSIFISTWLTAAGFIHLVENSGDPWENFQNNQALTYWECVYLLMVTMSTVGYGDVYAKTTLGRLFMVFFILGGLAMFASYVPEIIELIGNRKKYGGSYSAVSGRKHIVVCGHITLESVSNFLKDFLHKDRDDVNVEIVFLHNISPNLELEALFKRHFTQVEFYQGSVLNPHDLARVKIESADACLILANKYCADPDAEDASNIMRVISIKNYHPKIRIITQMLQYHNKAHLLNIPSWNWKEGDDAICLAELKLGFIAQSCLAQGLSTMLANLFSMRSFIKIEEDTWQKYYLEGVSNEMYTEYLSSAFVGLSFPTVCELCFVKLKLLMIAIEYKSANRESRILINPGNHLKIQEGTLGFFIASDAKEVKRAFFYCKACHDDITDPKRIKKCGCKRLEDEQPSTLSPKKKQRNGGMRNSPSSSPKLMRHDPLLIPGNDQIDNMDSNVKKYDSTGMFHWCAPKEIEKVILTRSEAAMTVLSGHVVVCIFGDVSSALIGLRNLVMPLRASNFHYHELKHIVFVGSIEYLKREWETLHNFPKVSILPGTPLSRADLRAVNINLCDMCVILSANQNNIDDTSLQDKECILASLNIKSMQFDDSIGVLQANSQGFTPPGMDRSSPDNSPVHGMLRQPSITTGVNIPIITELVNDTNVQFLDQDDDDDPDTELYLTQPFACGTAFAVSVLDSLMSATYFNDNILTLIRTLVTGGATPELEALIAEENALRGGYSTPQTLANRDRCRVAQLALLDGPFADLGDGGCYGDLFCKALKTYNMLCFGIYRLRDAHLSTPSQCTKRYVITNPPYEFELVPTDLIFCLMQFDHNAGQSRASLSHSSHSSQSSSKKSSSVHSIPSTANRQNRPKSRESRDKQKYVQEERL

T1 sequence (Q12791 whole entry): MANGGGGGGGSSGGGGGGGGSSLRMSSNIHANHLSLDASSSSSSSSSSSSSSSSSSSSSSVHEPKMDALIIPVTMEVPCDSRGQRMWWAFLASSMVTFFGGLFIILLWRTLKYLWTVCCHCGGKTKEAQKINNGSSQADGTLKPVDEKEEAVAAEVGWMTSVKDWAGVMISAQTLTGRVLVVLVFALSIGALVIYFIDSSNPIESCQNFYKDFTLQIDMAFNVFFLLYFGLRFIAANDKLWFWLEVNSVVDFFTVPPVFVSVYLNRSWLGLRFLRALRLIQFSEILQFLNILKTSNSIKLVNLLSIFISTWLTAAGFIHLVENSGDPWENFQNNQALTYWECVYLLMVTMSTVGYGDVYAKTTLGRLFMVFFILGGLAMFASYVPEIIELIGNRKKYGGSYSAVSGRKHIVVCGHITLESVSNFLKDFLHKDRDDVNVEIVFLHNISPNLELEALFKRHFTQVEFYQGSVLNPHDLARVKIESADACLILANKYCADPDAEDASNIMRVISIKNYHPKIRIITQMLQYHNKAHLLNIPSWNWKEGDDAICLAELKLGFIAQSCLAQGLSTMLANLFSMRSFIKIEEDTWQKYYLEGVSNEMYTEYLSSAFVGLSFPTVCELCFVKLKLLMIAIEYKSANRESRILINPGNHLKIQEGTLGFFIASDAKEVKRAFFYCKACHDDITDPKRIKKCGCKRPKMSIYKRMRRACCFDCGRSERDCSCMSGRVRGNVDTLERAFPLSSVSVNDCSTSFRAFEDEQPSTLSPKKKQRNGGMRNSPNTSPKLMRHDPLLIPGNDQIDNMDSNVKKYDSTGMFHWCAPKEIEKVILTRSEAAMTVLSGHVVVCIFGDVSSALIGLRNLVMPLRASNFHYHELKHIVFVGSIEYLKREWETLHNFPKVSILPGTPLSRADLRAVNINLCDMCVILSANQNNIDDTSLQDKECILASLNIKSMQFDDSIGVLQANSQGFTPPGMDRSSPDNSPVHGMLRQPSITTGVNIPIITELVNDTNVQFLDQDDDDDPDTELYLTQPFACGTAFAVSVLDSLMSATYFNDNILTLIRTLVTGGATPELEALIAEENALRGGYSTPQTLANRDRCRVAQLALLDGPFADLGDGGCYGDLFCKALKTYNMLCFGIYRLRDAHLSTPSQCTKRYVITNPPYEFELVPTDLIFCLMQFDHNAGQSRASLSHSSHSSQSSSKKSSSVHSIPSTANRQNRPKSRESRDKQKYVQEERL
T2 sequence (Q08460 whole entry): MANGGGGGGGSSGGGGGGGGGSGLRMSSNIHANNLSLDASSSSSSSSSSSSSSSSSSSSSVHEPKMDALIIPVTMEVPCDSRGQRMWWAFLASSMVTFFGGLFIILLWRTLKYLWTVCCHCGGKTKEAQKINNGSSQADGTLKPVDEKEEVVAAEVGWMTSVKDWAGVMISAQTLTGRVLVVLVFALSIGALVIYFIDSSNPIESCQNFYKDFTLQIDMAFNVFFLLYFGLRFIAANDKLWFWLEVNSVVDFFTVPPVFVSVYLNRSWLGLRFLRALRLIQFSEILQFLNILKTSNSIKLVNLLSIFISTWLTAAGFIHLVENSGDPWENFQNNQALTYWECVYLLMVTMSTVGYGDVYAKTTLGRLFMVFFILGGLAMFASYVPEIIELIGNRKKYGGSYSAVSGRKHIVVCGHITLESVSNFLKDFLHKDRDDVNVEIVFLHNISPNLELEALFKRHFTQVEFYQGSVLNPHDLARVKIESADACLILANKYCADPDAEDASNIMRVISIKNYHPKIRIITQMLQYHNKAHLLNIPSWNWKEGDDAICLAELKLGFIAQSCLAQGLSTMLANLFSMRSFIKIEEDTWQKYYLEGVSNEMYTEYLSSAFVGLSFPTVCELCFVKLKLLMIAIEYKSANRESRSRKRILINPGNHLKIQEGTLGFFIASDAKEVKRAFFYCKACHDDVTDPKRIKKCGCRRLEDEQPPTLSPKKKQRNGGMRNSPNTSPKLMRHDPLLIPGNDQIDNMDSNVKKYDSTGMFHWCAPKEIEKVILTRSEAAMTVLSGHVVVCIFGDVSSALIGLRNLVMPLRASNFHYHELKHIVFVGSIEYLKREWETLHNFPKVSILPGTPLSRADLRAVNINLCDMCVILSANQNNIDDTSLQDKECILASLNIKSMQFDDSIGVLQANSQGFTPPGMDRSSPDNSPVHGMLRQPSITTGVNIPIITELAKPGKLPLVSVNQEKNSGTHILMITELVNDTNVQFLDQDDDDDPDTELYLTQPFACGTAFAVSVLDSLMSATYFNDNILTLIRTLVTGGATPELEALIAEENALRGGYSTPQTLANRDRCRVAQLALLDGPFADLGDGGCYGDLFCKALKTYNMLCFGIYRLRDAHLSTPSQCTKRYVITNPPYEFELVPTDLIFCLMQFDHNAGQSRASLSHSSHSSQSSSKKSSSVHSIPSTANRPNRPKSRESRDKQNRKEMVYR
BKCa channel (Mus musculus, UniProt Q08460), sequence (Q08460 whole entry, the tested form may be a part): as the sequence (Q08460 whole entry) above
T4 sequence (Q05655 whole entry): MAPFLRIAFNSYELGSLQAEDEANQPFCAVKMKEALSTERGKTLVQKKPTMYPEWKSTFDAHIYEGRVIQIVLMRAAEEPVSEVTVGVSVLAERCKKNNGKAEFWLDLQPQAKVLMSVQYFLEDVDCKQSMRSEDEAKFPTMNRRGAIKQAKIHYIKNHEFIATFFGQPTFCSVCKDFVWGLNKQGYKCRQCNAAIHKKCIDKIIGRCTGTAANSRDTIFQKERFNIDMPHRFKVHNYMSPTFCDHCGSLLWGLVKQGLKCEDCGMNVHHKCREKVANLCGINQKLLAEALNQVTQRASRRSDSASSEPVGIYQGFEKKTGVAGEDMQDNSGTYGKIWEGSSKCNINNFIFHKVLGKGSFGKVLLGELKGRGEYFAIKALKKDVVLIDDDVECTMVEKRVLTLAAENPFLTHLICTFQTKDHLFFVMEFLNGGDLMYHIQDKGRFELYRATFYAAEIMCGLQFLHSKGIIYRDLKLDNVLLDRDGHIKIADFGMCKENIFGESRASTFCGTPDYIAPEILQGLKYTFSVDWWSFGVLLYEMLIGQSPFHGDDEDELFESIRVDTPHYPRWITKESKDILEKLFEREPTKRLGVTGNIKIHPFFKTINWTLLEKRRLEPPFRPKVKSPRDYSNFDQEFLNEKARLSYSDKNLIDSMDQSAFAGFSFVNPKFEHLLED
maxi-K channels, sequence (Q12791 whole entry): as the sequence (Q12791 whole entry) above
maxi-K potassium channels, sequence (Q12791 whole entry): as above
T3 sequence (Q08460 whole entry): as the sequence (Q08460 whole entry) above
T3 sequence (Q16558 whole entry partner): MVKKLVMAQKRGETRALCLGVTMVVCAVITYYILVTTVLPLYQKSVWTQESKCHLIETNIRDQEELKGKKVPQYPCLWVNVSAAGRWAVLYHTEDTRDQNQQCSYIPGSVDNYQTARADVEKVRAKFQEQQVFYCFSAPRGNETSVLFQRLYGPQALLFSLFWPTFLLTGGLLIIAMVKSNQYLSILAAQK
BKCa channel α and β subunits, sequence (Q12791 whole entry): as the sequence (Q12791 whole entry) above
BKCa channel α and β subunits, sequence (Q16558 whole entry partner): as the sequence (Q16558 whole entry partner) above

iberiotoxin: inhibitor used to identify the BKCa channel (QFTDVDCSVSKECWSVCKDLFGVDRGKCMGKKCRCYQ; UniProt P24663 1-37, looked up) [reference compound]
inhibition of rottlerin channel activation [1]: can be inhibited

dehydrosoyasaponin-I [DHS-I]
channel activity [2]: increases channel activity
BKCa channel activation [3]: activate BKCa channels
membrane permeability [4]: poor

O=c1[nH]c2cc(C(F)(F)F)ccc2n1-c1cc(C(F)(F)F)ccc1O [NS-1619]
efficacy in mediating vascular relaxation [5]: diminished
peak K+ current [6]: activated
intracellular Ca2+ concentration [7]: increase intracellular Ca^2+ concentration
Ca2+ channel [8]: inhibits
Cl- channel [9]: inhibits

Ryanodine
reduction of dilation to forskolin [10]: 80%

CC(=O)c1c(O)c(C)c(O)c(Cc2c(O)c3c(c(C(=O)/C=C/c4ccccc4)c2O)OC(C)(C)C=C3)c1O [rottlerin, 5,7-dihydroxy-2,2-dimethyl-6-(2,4,6-trihydroxy-3-methyl-5-acetylbenzyl)-8-cinnamoyl-1,2-chromene]
IC50 [11]: 30 to 100 µM
fertility rate [12]: reduce the fertility rate
effect on PKCα activity [13]: virtually no effect
IC50 [14]: 30 to 100 µM
channel activity ([15]; HEK293 cells expressing both mSlo and β1 subunit): activated the channel
I-V curve ([15]; rottlerin 0.5 μM, whole cell, 5 mM EGTA intra-pipette): significantly shifted the I-V curve to the left
effect on phenylephrine mediated contraction ([16]; rottlerin 1 μM): no significant effect
reduction of phenylephrine mediated contraction ([16]; rottlerin 4 μM): > 50%
PE induced constriction of the vessel ([16]; rottlerin (0.5 μM), p<0.001, representative of 4 experiments): significantly inhibited
cerebral vasospasm [17]: inhibited the initial phase of cerebral vasospasm
toxic effects [17]: No toxic effects
BKCa channel activity on extracellular exposure ([6]; 0.5 μM via local perfusion after 25 min intracellular dialysis): significantly increased
BKCa channel activity/current on intracellular dialysis ([6]; 20 μM rottlerin in patch pipette, 5 mM EGTA, over 25 min): minimal effect; also recorded: only a relatively small effect
tail currents (slowing of deactivation) ([6]; after exposure to rottlerin (FIG. 4: 0.5 μM extracellular, 5 mM EGTA in pipette)): significantly prolonged; also recorded: markedly prolonged
BKCa channel activation on local perfusion ([6]; extracellular, pipette 5 mM EGTA (~0 free Ca2+)): activated channel
current after NS-1619 administration ([6]; rottlerin 0.5 μM added after NS-1619 (10 μM), 0 Ca2+): incrementally increased current
BKCa channel activity ([6]; rottlerin ≦100 nM, non-phosphorylated conditions, non-Ca2+ dependent, reversible): dramatically increased
effect on PKCδ activity [18]: virtually no effect
IC50 [19]: 30 to 100 µM
uncoupling of mitochondria ([20]; 10 μM): can uncouple mitochondria
ATP levels ([20]; PKC independent): reduce ATP levels
fertility rate [21]: reduce the fertility rate
IC50 [22]: 3 to 6 µM
Po ([23]; rottlerin (0.5 μM) by local perfusion): significantly increased
open dwell time ([23]; rottlerin (0.5 βM) by local perfusion): significantly increased
single channel activity, outside-out patch ([1]; rottlerin 0.5 μM local perfusion to extracellular side, 0 Ca2+ (actual <20 nM)): activation of BKCa
single channel activity, inside-out patch ([1]; rottlerin 0.5 μM local perfusion, 0 Ca2+): activation of BKCa
channel conductance ([1]; rottlerin 0.5 μM, amplitude histograms): does not significantly change
IC50 [24]: 10 µM
capacity of GLAST glutamate transporter [25]: decrease the capacity
blocking PKCδ activity in vitro [26]: ineffective

C=C[C@]1(C)C=C2CC[C@@]3(O)C(C)(C)CC[C@H](O)[C@]3(C)C2CC1 (stereo partly shown) [Maxikdiol]
membrane permeability [4]: limited
concentration with significant effect on channel [27]: 3 to 10 µM
threshold concentration for channel activation [27]: 1 µM

COc1ccc(Cl)cc1[C@]1(F)C(=O)Nc2cc(C(F)(F)F)ccc21 [BMS-204352]
effect on current ([28]; 50 nM intracellular Ca2+): almost no effect
effect on current ([28]; higher intracellular Ca2+ concentrations): progressively greater increases in current
brain infarct size [29]: reduction in brain infarct size

O=C(Nc1cccc(C(F)(F)F)c1)Nc1cc(Cl)ccc1O [NS1608]
effect at higher concentrations (bell shaped) ([30]; 50 μM): inhibitory effect
concentration of maximum BKCa channel activation ([30]; porcine coronary artery cells): 5 to 10 µM
minimum effective concentration, BKCa channel activation ([30]; porcine coronary artery cells): 0.5 µM

C[C@@H]1O[C@@H](O[C@H]2[C@H](O[C@H]3[C@H](O[C@H]4CC[C@@]5(C)[C@@H](CC[C@]6(C)[C@@H]5CC=C5[C@@H]7CC(C)(C)C[C@@H](O)[C@]7(C)CC[C@]56C)[C@@]4(C)CO)O[C@H](C(=O)O)[C@@H](O)[C@@H]3O)O[C@H](CO)[C@H](O)[C@@H]2O)[C@H](O)[C@H](O)[C@H]1O [soyasaponin I]
BKCa channel activation [3]: activate BKCa channels

CC1(C)C[C@@H](O)[C@]2(C)CC[C@]3(C)C(=CC[C@@H]4[C@@]5(C)CC[C@H](O[C@@H]6O[C@H](C(=O)O)[C@@H](O)[C@H](O)[C@H]6O[C@@H]6O[C@H](CO)[C@H](O)[C@H](O)[C@H]6O)[C@](C)(CO)[C@@H]5CC[C@]43C)[C@@H]2C1 [soyasaponin III]
BKCa channel activation [3]: activate BKCa channels

CC[N+](CC)(CC)CC [TEA, reference compound]
inhibition of the rottlerin mediated effect on contraction ([16]; TEA): inhibited
inhibition of rottlerin induced BKCa activation ([6]; TEA 5 mM): reversibly inhibited
inhibition of rottlerin channel activation [1]: can be inhibited
